Experimental data taken from PubChem BioAssay AID256 (DTP/NCI, 2004).
Inconclusive results and toxic doses are left out. The calls were made as follows: active = survival T/C of 150% or more; inactive = T/C below 125% in these data.

System: CD2F1 mice, L1210 leukemia ip, survival T/C
Assay: NCI In Vivo Anticancer Drug Screen. Data for tumor model L1210 Leukemia (intraperitoneal) in CD2F1 (CDF1) mice
Settings: endpoint: mean survival time, higher = longer survival
In short: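 Implant tumor; dose compound or vehicle; measure endpoint in both groups; report treated divided by control.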

[1] = dose: 25.0 mg/kg/injection, schedule: Q04DX003 (ip), vehicle: saline
[2] = dose: 50.0 mg/kg/injection, schedule: Q04DX003 (ip), vehicle: saline
[3] = dose: 100.0 mg/kg/injection, schedule: Q01DX001 (ip), vehicle: saline
[4] = dose: 100.0 mg/kg/injection, schedule: Q01DX009 (ip), vehicle: saline
[5] = dose: 100.0 mg/kg/injection, schedule: Q04DX002 (ip), vehicle: saline
[6] = dose: 100.0 mg/kg/injection, schedule: Q04DX003 (ip), vehicle: saline
[7] = dose: 200.0 mg/kg/injection, schedule: Q01DX001 (ip), vehicle: saline
[8] = dose: 200.0 mg/kg/injection, schedule: Q01DX009 (ip), vehicle: saline
[9] = dose: 200.0 mg/kg/injection, schedule: Q04DX002 (ip), vehicle: saline
[10] = dose: 200.0 mg/kg/injection, schedule: Q04DX003 (ip), vehicle: saline
[11] = dose: 400.0 mg/kg/injection, schedule: Q01DX001 (ip), vehicle: saline
[12] = dose: 400.0 mg/kg/injection, schedule: Q04DX002 (ip), vehicle: saline
[13] = dose: 100.0 mg/kg/injection, schedule: Q04DX003 (ip), vehicle: saline with Tween-80
[14] = dose: 200.0 mg/kg/injection, schedule: Q04DX003 (ip), vehicle: saline with Tween-80
[15] = dose: 400.0 mg/kg/injection, schedule: Q04DX003 (ip), vehicle: saline with Tween-80
[16] = dose: 100.0 mg/kg/injection, schedule: Q04DX002 (ip), vehicle: saline with Tween-80
[17] = dose: 200.0 mg/kg/injection, schedule: Q04DX002 (ip), vehicle: saline with Tween-80
[18] = dose: 400.0 mg/kg/injection, schedule: Q04DX002 (ip), vehicle: saline with Tween-80
[19] = dose: 100.0 mg/kg/injection, schedule: Q01DX001 (ip), vehicle: saline with Tween-80
[20] = dose: 200.0 mg/kg/injection, schedule: Q01DX001 (ip), vehicle: saline with Tween-80
[21] = dose: 400.0 mg/kg/injection, schedule: Q01DX001 (ip), vehicle: saline with Tween-80
[22] = dose: 50.0 mg/kg/injection, schedule: Q01DX009 (ip), vehicle: saline with Tween-80
[23] = dose: 100.0 mg/kg/injection, schedule: Q01DX009 (ip), vehicle: saline with Tween-80
[24] = dose: 200.0 mg/kg/injection, schedule: Q01DX009 (ip), vehicle: saline with Tween-80

Measured: T/C

CC(=O)N1CCCC2=C1CCCCCC2
inactive: dose: 12.5 mg/kg/injection, schedule: Q04DX003 (ip), vehicle: saline 101 % of control | dose: 25.0 mg/kg/injection, schedule: Q01DX009 (ip), vehicle: saline 110 % of control | [1] 88 % of control | dose: 50.0 mg/kg/injection, schedule: Q01DX009 (ip), vehicle: saline 115 % of control | [2] 88 % of control | [3] 96 % of control | [4] 113 % of control | [5] 102 % of control | [6] 90 % of control | [7] 102 % of control | [8] 110 % of control | [9] 98 % of control | [10] 95 % of control | [11] 93 % of control | [12] 95 % of control | dose: 400.0 mg/kg/injection, schedule: Q04DX003 (ip), vehicle: saline 91 % of control | dose: 500.0 mg/kg/injection, schedule: Q04DX002 (ip), vehicle: saline 98 % of control | dose: 600.0 mg/kg/injection, schedule: Q01DX001 (ip), vehicle: saline 93 % of control

CCC1CCCC[N-]1.CCC1CCCC[N-]1.[Cl][Pt+2][Cl] (configuration not stated)
inactive: dose: 18.8 mg/kg/injection, schedule: Q04DX003 (ip), vehicle: saline with Tween-80 106 % of control | dose: 37.5 mg/kg/injection, schedule: Q04DX003 (ip), vehicle: saline with Tween-80 100 % of control | dose: 75.0 mg/kg/injection, schedule: Q04DX003 (ip), vehicle: saline with Tween-80 91 % of control | dose: 150.0 mg/kg/injection, schedule: Q04DX003 (ip), vehicle: saline with Tween-80 91 % of control | dose: 300.0 mg/kg/injection, schedule: Q04DX003 (ip), vehicle: saline with Tween-80 88 % of control

c1ccc2cc3nc4cc5ccccc5cc4nc3cc2c1
inactive: [13] 95 % of control | [14] 103 % of control | [15] 91 % of control

Nc1ncnc2c1[nH]c(=S)n2C1OC(CO)C(O)C1O (configuration not stated)
inactive: [16] 107 % of control | [17] 103 % of control | [18] 100 % of control

CCOc1ccc(/C=C2N=C(/C=C/c3ccccc3)OC\2=O)cc1
inactive: [16] 91 % of control | [17] 95 % of control | [18] 91 % of control

O=C(Sc1nc2ccccc2s1)c1ccccc1
inactive: [3] 95 % of control | [7] 97 % of control | [11] 115 % of control

O=[N+]([O-])c1ccc(N/N=C/c2ccccn2)cc1
inactive: dose: 100.0 mg/kg/injection, schedule: Q04DX003 (ip), vehicle: Klucel (hydroxypropylcellulose) (HPC) 96 % of control | dose: 200.0 mg/kg/injection, schedule: Q04DX003 (ip), vehicle: Klucel (hydroxypropylcellulose) (HPC) 89 % of control | dose: 400.0 mg/kg/injection, schedule: Q04DX003 (ip), vehicle: Klucel (hydroxypropylcellulose) (HPC) 94 % of control

COc1ccc(NC(=O)c2ccccc2)c([N+](=O)[O-])c1
inactive: [13] 105 % of control | [14] 97 % of control | [15] 94 % of control

CC(C)(C)c1cccc(C(C)(C)C)c1O
inactive: [4] 95 % of control | [8] 94 % of control | dose: 400.0 mg/kg/injection, schedule: Q01DX009 (ip), vehicle: saline 106 % of control

Cc1cc(C)c(C)c(C(=O)C(=O)c2ccccc2)c1
inactive: dose: 75.0 mg/kg/injection, schedule: Q01DX001 (ip), vehicle: other 93 % of control | dose: 150.0 mg/kg/injection, schedule: Q01DX001 (ip), vehicle: other 94 % of control | dose: 300.0 mg/kg/injection, schedule: Q01DX001 (ip), vehicle: other 100 % of control

CC(=O)OC1CCC2(C)C(CCC3C2CCC2(C)C3CC3OC(CCC(C)O)C(C)C32)C1 (configuration not stated)
inactive: [16] 86 % of control

NNc1c(F)ccc(F)c1F
inactive: dose: 25.0 mg/kg/injection, schedule: Q01DX001 (ip), vehicle: saline with Tween-80 100 % of control | dose: 50.0 mg/kg/injection, schedule: Q01DX001 (ip), vehicle: saline with Tween-80 100 % of control | [19] 94 % of control

O=C(O)C(C(=O)O)C1C=CCC1 (configuration not stated)
inactive: dose: 50.0 mg/kg/injection, schedule: Q04DX002 (ip), vehicle: saline with Tween-80 98 % of control | [16] 102 % of control | [17] 87 % of control | [18] 87 % of control

CC(C)(C)OC(=O)NC(CC(N)=O)C(=O)O (configuration not stated)
inactive: dose: 100.0 mg/kg/injection, schedule: Q01DX001 (ip), vehicle: saline sonified 98 % of control | dose: 200.0 mg/kg/injection, schedule: Q01DX001 (ip), vehicle: saline sonified 93 % of control | dose: 400.0 mg/kg/injection, schedule: Q01DX001 (ip), vehicle: saline sonified 98 % of control

CC1CC=C(/C=N/Nc2ccc([N+](=O)[O-])cc2[N+](=O)[O-])C(C)O1 (configuration not stated)
inactive: [19] 107 % of control | [20] 101 % of control | [21] 98 % of control

NCc1cccnc1
inactive: [5] 96 % of control | [9] 107 % of control | [12] 111 % of control

Cc1ccc(C)c(OC(=O)Nc2cccc3ccccc23)c1
inactive: [16] 91 % of control | [17] 91 % of control | [18] 91 % of control

O=C(Cc1ccccc1)SC(=O)Cc1ccccc1
inactive: [19] 102 % of control | [20] 94 % of control | [21] 102 % of control

Cc1cc(O)c2c(c1)C(=O)C=CC2=O
inactive: dose: 0.12 mg/kg/injection, schedule: Q01DX009 (ip), vehicle: other 102 % of control | dose: 0.25 mg/kg/injection, schedule: Q01DX009 (ip), vehicle: other 108 % of control | dose: 0.5 mg/kg/injection, schedule: Q01DX009 (ip), vehicle: other 97 % of control | dose: 1.0 mg/kg/injection, schedule: Q01DX009 (ip), vehicle: other 93 % of control | dose: 2.0 mg/kg/injection, schedule: Q01DX009 (ip), vehicle: other 97 % of control

CCN(CC)CCNC1CCCCC1
inactive: dose: 25.0 mg/kg/injection, schedule: Q01DX009 (ip), vehicle: saline with Tween-80 96 % of control | [1] 97 % of control | [22] 96 % of control | [2] 100 % of control | [23] 96 % of control | [6] 94 % of control

CCCCCCCCCCCCOc1c(Cl)cc(Cl)cc1Cl
inactive: [16] 101 % of control | [17] 101 % of control | [18] 104 % of control

CN(C)/N=C/c1ccccn1
inactive: [1] 98 % of control | [2] 95 % of control | [6] 101 % of control | [10] 120 % of control

Cc1cc(=O)[nH][nH]c1=O
inactive: [23] 104 % of control | [24] 97 % of control | dose: 400.0 mg/kg/injection, schedule: Q01DX009 (ip), vehicle: saline with Tween-80 101 % of control

CN(C)CCCNC(=O)c1ccc(N)cc1
inactive: [5] 102 % of control | [9] 105 % of control | [12] 97 % of control

CCOC/C=C\C1=CCCCC1
inactive: [22] 97 % of control | [23] 114 % of control | [24] 105 % of control
